T1: hGWL^FL (Homo sapiens, UniProt Q96GX5)
T1 construct: N-terminally FLAG-tagged full-length human GWL; made in house; host or cells: HEK293T cells, transfected and nocodazole-arrested; protein captured on anti-Flag M2 beads
T1 sequence (Q96GX5 1-879): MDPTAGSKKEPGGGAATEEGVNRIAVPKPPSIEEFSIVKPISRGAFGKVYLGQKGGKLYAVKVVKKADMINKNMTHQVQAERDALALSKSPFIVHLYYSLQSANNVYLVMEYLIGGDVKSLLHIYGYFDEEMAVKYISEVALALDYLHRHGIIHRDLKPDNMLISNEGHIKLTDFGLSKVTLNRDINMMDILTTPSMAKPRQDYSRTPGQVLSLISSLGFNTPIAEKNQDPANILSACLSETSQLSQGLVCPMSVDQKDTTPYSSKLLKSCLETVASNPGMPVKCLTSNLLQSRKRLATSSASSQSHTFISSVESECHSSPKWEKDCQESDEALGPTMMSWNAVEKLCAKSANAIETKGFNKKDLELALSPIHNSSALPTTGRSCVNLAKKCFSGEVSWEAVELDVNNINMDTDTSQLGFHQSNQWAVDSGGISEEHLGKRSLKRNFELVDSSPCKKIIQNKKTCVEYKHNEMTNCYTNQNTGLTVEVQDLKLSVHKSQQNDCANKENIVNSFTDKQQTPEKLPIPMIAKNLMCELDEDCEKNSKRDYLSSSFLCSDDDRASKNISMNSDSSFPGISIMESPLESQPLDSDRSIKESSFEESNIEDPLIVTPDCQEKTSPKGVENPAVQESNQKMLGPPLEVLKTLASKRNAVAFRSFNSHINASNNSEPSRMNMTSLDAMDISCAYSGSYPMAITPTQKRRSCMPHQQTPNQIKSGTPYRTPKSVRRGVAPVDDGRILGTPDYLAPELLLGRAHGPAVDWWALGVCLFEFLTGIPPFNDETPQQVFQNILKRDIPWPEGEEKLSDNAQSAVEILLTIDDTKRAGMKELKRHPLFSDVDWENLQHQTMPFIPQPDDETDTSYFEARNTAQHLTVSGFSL

B1: ENSA: His-tagged recombinant α-endosulfine, GWL substrate (protein, UniProt O43768 2-121, looked up)
Alpha-endosulfine: SQKQEEENPAEETGEEKQDTQEKEGILPERAEEAKLKAKYPSLGQKPGGSDFLMKRLQKGQKYFDSGDYNMAKAKMKNKQLPSAGPDKNLVTGDHIPTPQDLPQRKSSLVTSKLAGGQVE
modifications: His tag
notes: His-tagged recombinant α-endosulfine, GWL substrate

Experiments:
Format in all cases: biochemical
[1] = molecular target: T2, PKA (Homo sapiens, UniProt P17612); assay: PKA kinase assay (Promega)
T2 construct: purchased Promega
Procedure: (§1) hGWLFL, 100 µl of lysate was diluted 5-fold with IP buffer and combined with 3 µl anti-Flag M2 magnetic Dynabeads [Sigma-Aldrich] overnight at 4 °C. After sequential washes with IP buffer, 1:1 mix of IP and kinase assay buffers and a final wash in kinase assay buffer, the beads were then used in the kinase assay. The reaction was stopped by adding SDS loading buffer and analysed by western blot: p-ENSA and GWL levels were detected using the anti-phospho(Ser67)-ENSA and anti-MASTL(GWL, Prestige) antibodies. Activity was measured as the p-ENSA/GWL ratio and % kinase activity was normalised to the DMSO control. All kinases assays were repeated thrice per assay condition and each point on the concentration-dependent response curves represents the mean ± 1 S.D.
(§2) PKA, ROCK1 and CDK2 kinase assays […]
(§3) Data were normalised against the AllStars negative control siRNA treated cells and values obtained from 3 – 5 biological replicates were reported as the mean ± 1 S.D.

[2] = molecular target: T1, hGWL^FL; assay: Immunoprecipitation kinase assay with Flag-tagged hGWL^FL (p-ENSA western); conditions: for IC50: immunoprecipitated Flag-tagged hGWL^FL, read-out: IC50 GWL^FL; for inhibition of hGWL^FL (result in words): immunoprecipitation kinase assay
Procedure: 500 mM NaCl, and 0.5 mM TCEP) diluted to desired concentration or immunoprecipitated hGWL on beads with ultra-pure ATP [Promega, 25 µM] and His-tagged substrate  α-endosulfine (ENSA, 2 µM) in kinase assay buffer (50 mM Tris-HCl pH 7.5, 0.5 mM EGTA, 150 mM NaCl, 0.1% v/v NP-40 and 15 mM MgCl2). The […]
(dithiothreitol), 50% v/v Glycerol, 10% v/v SDS (sodium dodecyl sulphate), and 0.25M Tris-HCl pH 6.8) or Kinase-Glo Max reagent [Promega]. Recombinant His-tagged ENSA was purified using Ni-NTA agarose [QIAGEN] from BL21 E. coli following the manufacturer’s recommended protocol. […]
(§4) All kinase assays were repeated thrice per assay condition and each point on the concentration-dependent response curves represents the mean ± […]
Immunoprecipitation Kinase Assay
HEK293T cells were transfected with 10 µg of plasmid (Flag-tagged hGWLFL or GFP; pcDNA3-EGFP, Addgene, Cambridge MA, USA) using CaCl2. […]
incubated for a further 16–18 h. Cells were collected and washed in PBS-A followed by lysis on ice for 20 min in 1mL IP buffer (50 mM Tris-HCl pH 7.5, 150 mM NaCl, 10% v/v glycerol, 0.5% v/v NP-40, 1 mM EDTA supplemented with protease and phosphatase inhibitors (Complete and PhosStop; Roche Diagnostics)). Samples were then sonicated and clarified by centrifugation at 13,000 rpm for 30 min at 4°C. To capture Flag-tagged […]
as §1, with “S.D. […]” for “S.D.”

[3] = molecular target: T3, ROCK1 (Homo sapiens, UniProt Q13464); assay: ROCK1 kinase assay (Promega)
T3 construct: purchased Promega
Procedure: as §1, §2, §3

[4] = molecular target: T4, hGWL-KinDom (Homo sapiens, UniProt Q96GX5); assay: Kinase-Glo Max luminescence kinase assay with hGWL-KinDom; conditions: for Km / kcat: substrate of hGWL-KinDom, Kinase-Glo Max
T4 construct: that encoded amino acids (aa) 1-194 + ‘RTFC’ + 740-879 of hGWL; GST (rhinovirus 3C-protease cleavable) (N, cleaved yes); made in house; host or cells: E. coli Rosetta2(DE3)
Procedure: Non-radioactive kinase assays were set-up by combining hGWL-KinDom (305 µM in 20 mM HEPES pH 7.5, FL 500 mM NaCl, and 0.5 mM TCEP) diluted to desired concentration or immunoprecipitated hGWL on beads with ultra-pure ATP [Promega, 25 µM] and His-tagged substrate  α-endosulfine (ENSA, 2 µM) in kinase assay buffer (50 mM Tris-HCl pH 7.5, 0.5 mM EGTA, 150 mM NaCl, 0.1% v/v NP-40 and 15 mM MgCl2). The reaction was allowed to proceed for 30 min at 37 °C or another indicated time-point after which it was stopped with either SDS loading buffer (5X buffer, including 0.25 % w/v Bromophenol blue, 0.5 M DTT (dithiothreitol), 50% v/v Glycerol, 10% v/v SDS (sodium dodecyl sulphate), and 0.25M Tris-HCl pH 6.8) or Kinase-Glo Max reagent [Promega]. Recombinant His-tagged ENSA was purified using Ni-NTA agarose [QIAGEN] from BL21 E. coli following the manufacturer’s recommended protocol. […]
as §4
After stopping the above non-radioactive kinase assay with 1 volume of Kinase-Glo Max reagent the mixture was allowed to incubate for a further 15 min. To detect consumption of ATP, samples were transferred to white, flat-bottom 96-well plates [Thermo Fisher Scientific, Loughborough, UK] and luminescence was detected using a POLARstar Omega micro-plate reader [BMG Labtech GmbH, Ortenberg, Germany]. As this assay measures ATP, activity or ATP turnover was measured as the -ΔRLU. […]

[5] = molecular target: T4, hGWL-KinDom; assay: Inhibitor screen of pooled library with hGWL-KinDom (Kinase-Glo Max); conditions: for inhibition at 10 µM: 10 μM screening concentration, ATP concentration = 45 μM; for Rank in inhibitor screen: rank by potency in the screen
Procedure: Two small-molecule compound libraries, enriched with pharmacophores known to interact with the ATP-binding site of protein kinases, were screened as a pooled library in a Kinase-GloMax luminescence-kinase assay. page 4: […] Dynabeads [Sigma-Aldrich] overnight at 4 °C. After sequential washes with IP buffer, 1:1 mix of IP and kinase assay buffers and a final wash in kinase assay buffer, the beads were then used in the kinase assay. The reaction was stopped by adding SDS loading buffer and analysed by western blot: p-ENSA and GWL levels were detected using the anti-phospho([…] and […], Prestige) antibodies. Activity was measured as the […] ratio and % kinase activity was normalised to the DMSO control. All kinases assays were repeated thrice per assay condition and each point on the concentration-dependent response curves represents the mean ± 1 S.D. PKA, ROCK1 and CDK2 kinase assays PKA and ROCK1 assays (Promega) were carried out according to the manufacturer's protocols and CDK2 assays were carried out with Histone H1 as substrate (1 µg per 20 µl reaction) according to our Kinase-Glo Max assay. CDK2 was expressed and purified from E. coli as previously described (10). Inhibitor Screens with hGWL-KinDom Two small-molecule compound libraries, enriched with pharmacophores known to interact with the ATP- binding site of protein kinases, were kindly provided by GlaxoSmithKline and Roche. We used this pooled library (582 compounds, 10 µM screening concentrations) in a Kinase-Glo Max luminescence kinase assay (11, 12) as part of a two-point screen against hGWL-KinDom kinase activity, using ATP at fixed concentrations of […] With STU as positive control at a […] 4A,B). […] rate = 5.8%; Supplementary Figure 4A). Molecular Docking - AutoDock AT13148 and GKI-1/2 were docked into the ATP-binding site of the hGWL-KinDom crystal structure (where the disordered C-helix was homology-modelled) using AutoDock 4.2.6. PDB format files for the ligand and kinase domain were pre-processed using AutoDock Tools 1.5.6 as described in Mohamed, et al. (13). (Figure 4 and Supplementary Figure 6A,B). Immunofluorescence and Time-lapse video microscopy 2.5 X 105 HeLa cells were plated onto glass coverslips in a 6-well plate, or 4-well µ-slides [Ibidi GmbH] were seeded with 5 X 104 cells and then transfected with Qiagen AllStars negative control or Hs_MASTL_6 siRNAs (14) using Lipofectamine RNAiMax [ThermoFisher Scientific]. Media was exchanged with fresh media the next day. 48 hours after siRNA treatment, only cells to be used for immunofluorescence (IF) were treated with nocodazole (200 ng/mL) and DMSO or GKI-1 at the indicated concentration. For IF, cells were fixed, stained with primary mouse anti-GWL and rabbit anti-p-ENSA antibodies, secondary Alexa Fluor 647-conjugated anti- rabbit and Alexa Fluor 488-conjugated anti-mouse antibodies, DAPI and mounted onto glass microscope slides using Diamond Antifade Mountant [Molecular Probes, ThermoFisher Scientific]. Quantitation of IF images was performed using the […]-Content Screening Station [Olympus Life Science] which acquired 220, 40x images per cover slip. Data were normalised against the AllStars negative control siRNA treated cells and values obtained from three biological replicates were reported as the mean ± 1 S.D. To assist with selecting mitotic cells, ScanR imaging software was utilised to gate for mitotic cells using the circularity factor and total DAPI parameters. To produce time-lapse videos, after 48 hours and cell treatment with DMSO or compound (cells were treated with GKI-1 for 4-h before image acquisition) cells plated in 4-well µ-slides were imaged every 5 minutes for 8.5 hours on an Olympus IX73 microscope, using a 40 x 0.95NA air objective, and recorded on an Orca-Flash 4.0 CMOS camera [Hamatsu]. The computer program Fiji (http://www.fiji.sc/Fiji) was used to generate videos from image sequence TIF files. Data were normalised against the AllStars negative control siRNA treated cells and […]

T4 sequence (Q96GX5 with tags, fused parts or gaps limits assumed): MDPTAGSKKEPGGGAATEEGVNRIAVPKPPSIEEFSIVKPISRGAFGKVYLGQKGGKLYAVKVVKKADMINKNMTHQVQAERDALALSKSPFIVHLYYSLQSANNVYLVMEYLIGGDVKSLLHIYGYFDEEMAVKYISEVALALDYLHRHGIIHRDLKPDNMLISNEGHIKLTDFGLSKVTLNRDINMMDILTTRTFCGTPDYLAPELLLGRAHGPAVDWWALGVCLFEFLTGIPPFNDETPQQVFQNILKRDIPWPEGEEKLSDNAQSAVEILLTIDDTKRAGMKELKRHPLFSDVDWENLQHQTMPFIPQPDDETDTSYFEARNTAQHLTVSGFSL
T3 sequence (Q13464 whole entry): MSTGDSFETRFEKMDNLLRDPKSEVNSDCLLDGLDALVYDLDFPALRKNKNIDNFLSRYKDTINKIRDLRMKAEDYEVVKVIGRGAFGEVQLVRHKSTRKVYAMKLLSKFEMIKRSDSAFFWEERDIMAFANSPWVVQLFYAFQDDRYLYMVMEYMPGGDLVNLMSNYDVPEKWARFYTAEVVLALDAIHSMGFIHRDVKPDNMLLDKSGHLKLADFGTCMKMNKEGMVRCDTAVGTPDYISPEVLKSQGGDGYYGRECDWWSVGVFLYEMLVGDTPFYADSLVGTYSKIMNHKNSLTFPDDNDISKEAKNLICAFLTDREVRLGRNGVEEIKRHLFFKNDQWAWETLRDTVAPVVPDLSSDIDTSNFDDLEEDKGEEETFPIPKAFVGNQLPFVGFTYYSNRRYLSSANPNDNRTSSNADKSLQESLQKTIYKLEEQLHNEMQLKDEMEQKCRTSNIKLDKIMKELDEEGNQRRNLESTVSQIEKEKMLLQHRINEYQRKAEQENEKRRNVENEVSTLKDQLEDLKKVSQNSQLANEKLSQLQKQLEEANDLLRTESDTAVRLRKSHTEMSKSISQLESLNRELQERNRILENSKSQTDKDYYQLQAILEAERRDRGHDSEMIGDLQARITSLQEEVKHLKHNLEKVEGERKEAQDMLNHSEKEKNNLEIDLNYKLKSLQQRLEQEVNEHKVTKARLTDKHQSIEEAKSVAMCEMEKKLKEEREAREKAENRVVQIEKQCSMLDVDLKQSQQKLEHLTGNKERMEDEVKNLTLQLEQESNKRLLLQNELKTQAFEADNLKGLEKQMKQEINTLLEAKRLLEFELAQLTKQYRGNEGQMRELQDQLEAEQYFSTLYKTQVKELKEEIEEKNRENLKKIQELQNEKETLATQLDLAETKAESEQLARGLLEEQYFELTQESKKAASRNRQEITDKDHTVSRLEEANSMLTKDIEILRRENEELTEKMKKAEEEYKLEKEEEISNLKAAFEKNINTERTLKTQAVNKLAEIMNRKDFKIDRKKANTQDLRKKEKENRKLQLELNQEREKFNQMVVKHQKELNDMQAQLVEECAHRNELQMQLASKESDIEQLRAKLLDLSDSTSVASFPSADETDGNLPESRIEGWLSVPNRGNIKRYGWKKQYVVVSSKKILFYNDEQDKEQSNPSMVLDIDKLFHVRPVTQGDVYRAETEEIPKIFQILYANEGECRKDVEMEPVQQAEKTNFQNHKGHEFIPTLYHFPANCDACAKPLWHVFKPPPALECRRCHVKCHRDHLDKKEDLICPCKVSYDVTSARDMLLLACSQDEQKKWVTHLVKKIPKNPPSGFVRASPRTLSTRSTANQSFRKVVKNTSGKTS

Molecule	IC50 [2]	Km [4]	kcat [4]	inhibition of hGWL^FL (result in words) [2]	inhibition at 10 µM [5]	Rank in inhibitor screen [5]	also measured
NC[C@@](O)(c1ccc(Cl)cc1)c1ccc(-c2cn[nH]c2)cc1 [AT13148, reference compound]	5900 nM	–	–	–	–	–	IC50 ([1]; refers to Table 2): ~11 nM; IC50 ([1]; ± S.D.): 6.13 ± 2 nM; inhibitory ratio (IC50 GWL^FL/IC50 GWL-KinDom) ([2]; for GKI-1: EC50 hGWL^FL vs IC50 hGWL-KinDom): 45; AT13148 IC50/STU IC50 ([2]; hGWL^FL inhibition): ~ 2; IC50 ([3]; refers to Table 2): ~6 nM; IC50 ([3]; ± S.D.): 11.4 ± 4 nM; IC50 ([4]; Kinase-Glo Max assay, read-out: IC50 GWL-KinDom): 125 ± 1.7 nM
Nc1ncnc2c1ncn2[C@@H]1O[C@H](COP(=O)(O)OP(=O)(O)OP(=O)(O)O)[C@@H](O)[C@H]1O [ATP]	–	17.2 ± 2.4 µM	10.4 ± 0.48 s⁻¹	–	–	–	–
Clc1ccc(Nc2ccc(-c3cn[nH]c3)cc2)cc1 [GKI-2, N-(4-chorophenyl)-4-(1H-pyrazol-4-yl)aniline]	–	–	–	did not demonstrably inhibit	–	–	–
COc1cc[nH]c1/C=C1\C(=O)Nc2ccc(F)c(C#CC3(O)CCNCC3)c21 [GRI-1]	> 100000 nM	–	–	did not demonstrably inhibit	67.6%	1	–
CNC(C#Cc1c(F)ccc2c1C(=Cc1[nH]ccc1OC)C(=O)N2)CO (stereo not drawn) [GRI-2]	> 100000 nM	–	–	did not demonstrably inhibit	37%	5	–
B1	–	1.6 ± 0.3 µM	0.2 ± 0.01 s⁻¹	–	–	–	–
